Consider 25 compounds from patent publication US5891657A (priority 1994, dated 1999).

Converted amounts (≈) assume the structure as drawn.

The subject of data set [1] is anti-analyte antibody. The conditions noted are these: magnetic-particle enzyme immunoassay.
Protocol: (§1) The sample to be tested is added, along with the enzyme conjugate, to a disposable test tube followed by the addition of paramagnetic particles with analyte-specific antibodies attached. At the end of an incubation period, a magnetic field is applied to hold the paramagnetic particles (with analyte and enzyme-conjugate bound to the antibodies on the particles, in proportion to their original concentration in the tube) in the tube and allow the unbound reagents to be decanted. After decanting, the particles are washed with Washing Solution.
(§2) The presence of analyte is detected by adding the enzyme substrate (hydrogen peroxide) and the chromogen (3,3',5,5'-tetramethylbenzidine). The enzyme-conjugate bound to the anti-analyte antibody catalyzes the conversion of the substrate/chromogen mixture to a colored product. After an incubation period, the reaction is stopped and stabilized by the addition of acid. Since the conjugate was in competition with the unlabeled analyte for the antibody sites, the color developed is inversely proportional to the concentration of analyte in the sample.
(§3) 200 μl of either standard, control or sample is added to each tube.
(§4) 250 μl of conjugate is added to each tube.
(§5) The antibody-coupled paramagnetic particles are mixed thoroughly and 500 ul of them are added to each tube (The stock solution with a concentration of 8-10 mg iron/ml was diluted 1:1000 in 150 mM Tris, 150 mM NaCl, 1 mM EDTA, 0.1% BSA with 15 ppm Proclin, pH 7.4 and 500 ul was added to each tube).
(§6) Tubes are vortexed for 1 to 2 seconds minimizing foaming.
(§7) Tubes are incubated for 15 min at room temperature (15°-30° C.).
(§8) Tubes in the magnetic rack are placed over a magnetic base for two minutes.
(§9) The tubes are decanted and gently blotted briefly in a consistent manner.
(§10) One ml of Washing Solution is added to each tube and the tubes are allowed to remain in the separation rack for two minutes.
(§11) Decant and gently blot all tubes briefly in a consistent manner.
(§12) Repeat steps 8 and 9 an additional time.
(§13) Remove the rack from the separator and add 500 μl of Color Solution to eac tube.
(§14) Vortex for 1 to 2 seconds minimizing foaming.
(§15) Incubate for 20 minutes at room temperature.
(§16) Add 500 μl of Stopping Solution to each tube.
(§17) Read results at 450 nm within 15 minutes after adding the Stopping Solution.
(§18) Calculating the mean absorbance value for each standard.
(§19) Calculating the % B/B0 for each standard by dividing the mean absorbance value for the standard by the mean absorbance value for the Diluent/Zero Standard In other words if the mean absorbance value for the standard is 0.5 times the mean absorbance value for the Diluent/Zero Standard then the % B/B0 is 50% and the concentration of standard used is the 50% B/B0 concentration.)
(§20) Constructing a standard curve by plotting the % B/B0 for each standard on vertical logit (Y) axis versus the corresponding analyte concentration on a horizontal algorithmic (X) axis.
(§21) 4. % B/B0 for controls and sample will then yield levels in ppm of analyte by interpolation using the standard curve.
A short description of data set [2]: Loss of immunoreactivity on storage in open test tube (volatilization). Type of data set: physicochemical. The conditions noted are these: conditions of Example 1; 2,4-D 10 ppm, naphthalene 0.75 ppm; FIG. 5. As for the experimental part: They were stored in 10 ml of distilled water at room temperature (15°-30° C.) in an open test tube (18 mm in diameter, and 150 mm in length).
The "Recovery" was taken to be inversely proportional to the light at 450 nm generated in the assay. […] The loss of reactivity as a function of time was concluded that the loss was due to volatilization and not chemical decomposition of the compounds. Also the loss was so great that it was concluded that even if the solutions had been incubated as 2 ml aliquots in 3 ml closed vials, much more than 30 percent would have volatilized over a 14-day period.
Additionally, preparations of anthracene (20 ppm), naphthalene (0.75 ppm), and 2,4-D (10 ppm), were tested for their immunoreactivity using the conditions of using the conditions described in Example 1.

Data set [3] can be described thus: Stability (lack of volatilization) of 2 ml solution in stoppered 3 ml vial. Type of data set: physicochemical. The conditions noted are these: 0.035, 0.10, 0.750 ppm; 2 ml in stoppered 3 ml vial; various temperatures; 60 days; FIGS. 2-4. Here is the method: Storage was effected by incubating the 2 ml of solution in a stoppered vial with a 3 ml capacity. The one ml of open "head space" in the vial […] to allow volatilization of the N-(3-methylbenzyl)-diglycolic acid, monoamide.
At each concentration of the N-(3-methylbenzyl)-diglycolic acid, monoamide, the immunoassay was performed at various temperatures denoted in the Figure summarizing the results.

Data set [4] deals with anti-analyte antibody. The data set is described as follows: Cross-reactivity / immunoreactivity in competitive magnetic-particle enzyme immunoassay.
Protocol: as §1, §2, §3, §4, §5, §6, §7, §8, §9, §10, §11, §12, §13, §14, §15, §16, §17, §18, §19, §20, §21
For data set [5] the following is noted: because of boiling point 279° C. (Merck Index); cited from earlier work.
The nature of data set [6]: Storage stability, 2.5 ml in 3.5 ml vials, antibody preparation reactive with anthracene and phenanthrene. Type of data set: physicochemical. As for the experimental part: Additional experiments were done using volumes of 2.5 ml in 3.5 ml vials and an antibody preparation reactive with anthracene and phenanthrene, the antibodies not made with the immunogen described herein and although much less suited for purposes of the present inventions than that made from the described immunogen, were adequate for obtaining the stability curves. (The results were considered to essentially reflect what would have occurred if the storage was done with 2 ml of solution in a 3 ml vial.) Anthracene was tested at concentrations of 1 ppb (upper set of curves in FIG. 6), 10 ppb (middle set of curves in FIG. 6) and 100 ppb (lower set of curves in FIG. 6) in TBS pH 7.0 at the specified temperatures in FIG. 6. Phenanthrene was tested at concentrations of 1 ppb (upper set of curves in FIG. 7), 10 ppb (middle set of curves in FIG. 7) and 100 ppb (lower set of curves in FIG. 7) in TBS at pH 7.0 at the specified temperatures in FIG. 7.

Regarding `Cc1ccc(C)c(C)c1` [1,2,4-trimethylbenzene], it took 1.15 µg/mL (≈ 9.57 µM) to reach half-maximal inhibition in the data set with anti-analyte antibody [1] (IC50).

Consider `Cc1cc(C)cc(C)c1` [1,3,5-tri-methylbenzene], for which the midpoint of inhibition in the data set with anti-analyte antibody [1], the IC50, lay at 3.5 µg/mL (≈ 29.1 µM). Compared with the last compound, the IC50 is about 3-fold higher.

On to `O=C(O)COc1ccc(Cl)cc1Cl` [2,4-D], for which the stability on storage result in data set [2] is given as “more stable than m-xylene but less stable than anthracene”.

On to `Cc1cccc(CNC(=O)COCC(=O)O)c1` [N-(3-methylbenzyl)-diglycolic acid, monoamide], for which the “stability (lack of volatilization) as a function of storage time” value in data set [3] is on record as “essentially stable”. For the same compound, the “equivalent Total BTEX concentration” value in the data set with anti-analyte antibody [4] (standard at 0.035 ppm) is “approximately 0.09 ppm”; in the data set on anti-analyte antibody [4] (standard at 0.035 ppm, monoamide), 0.09 ppm; in the data set with anti-analyte antibody [4] (standard at 0.10 ppm), “approximately 0.35 ppm”; in the data set with anti-analyte antibody [4] (standard at 0.10 ppm, monoamide), 0.35 ppm; with anti-analyte antibody [4] (standard at 0.75 ppm), “approximately 3.00 ppm”; with anti-analyte antibody [4] (standard at 0.75 ppm, monoamide), 3.00 ppm.

For the compound `c1cc2c3c(cccc3c1)CC2` [acenaphthene], the “stability as regards volatilization” value in data set [5] is on record as “stable as regards volatilization”. In addition, in the data set on anti-analyte antibody [1], half-maximal inhibition (IC50) required 6.2 µg/mL (≈ 40.2 µM).

Compound `c1ccc2cc3ccccc3cc2c1` [anthracene] yielded an IC50 with anti-analyte antibody [1] of 28 µg/mL (≈ 157 µM). Besides, the stability on storage entry in data set [6] (1, 10, 100 ppb in TBS pH 7.0, 2.5 ml in 3.5 ml vials, FIGS. 6, 7) is “very stable (meets the 14-day test)”.

In the data set with anti-analyte antibody [1], `c1ccccc1` [benzene] showed an IC50 of 51 µg/mL (≈ 653 µM).

As to `C1CCCCC1` [cyclohexane], the IC50 with anti-analyte antibody [1] was > 100 µg/mL.

`CCc1ccccc1` [ethylbenzene] returned an IC50 with anti-analyte antibody [1] of 7.8 µg/mL (≈ 73.5 µM).

Turning to `Clc1c(Cl)c(Cl)c(Cl)c(Cl)c1Cl` [hexachlorobenzene], in the data set on anti-analyte antibody [1], the IC50 was > 100 µg/mL.

For the compound `Cc1cccc(C)c1` [m-xylene], it took 1.8 µg/mL (≈ 17 µM) to reach half-maximal inhibition in the data set with anti-analyte antibody [1] (IC50).

As for `ClCCl` [methylene chloride], the IC50 in the data set on anti-analyte antibody [1] is > 100 µg/mL.

Regarding `CCCCCCCCCC` [n-decane], the IC50 with anti-analyte antibody [1] was > 100 µg/mL.

For the compound `CCCCCCC` [n-heptane], in the data set on anti-analyte antibody [1], the IC50 worked out at 72 µg/mL (≈ 719 µM).

Take `CCCCCC` [n-hexane]: in the data set on anti-analyte antibody [1], the IC50 is > 100 µg/mL.

Turning to `CCCCCCCCC` [n-nonane], the IC50 in the data set with anti-analyte antibody [1] was > 100 µg/mL.

Take `CCCCCCCC` [n-octane]: the IC50 in the data set with anti-analyte antibody [1] is > 100 µg/mL.

For `CCCc1ccccc1` [n-propylbenzene], the IC50 in the data set with anti-analyte antibody [1] came to 4.7 µg/mL (≈ 39.1 µM).

For `c1ccc2ccccc2c1` [naphthalene], the stability on storage entry in data set [2] is reported as “not sufficiently stable”. Also, the IC50 in the data set with anti-analyte antibody [1] came to 0.59 µg/mL (≈ 4.6 µM).

`Cc1ccccc1C` [o-xylene] displayed an IC50 with anti-analyte antibody [1] of 4.7 µg/mL (≈ 44.3 µM).

`Cc1ccc(C)cc1` [p-xylene]: inhibition in the data set with anti-analyte antibody [1] was half-maximal at 3.1 µg/mL (≈ 29.2 µM) (IC50).

The compound `c1ccc2c(c1)ccc1ccccc12` [phenanthrene] returned an IC50 with anti-analyte antibody [1] of 1.6 µg/mL (≈ 8.98 µM). The stability on storage result in data set [6] (pH 7) was “very stable (meets the 14-day test)”.

`C=Cc1ccccc1` [styrene]: the IC50 in the data set on anti-analyte antibody [1] came out at 2.6 µg/mL (≈ 25 µM).

Regarding `Cc1ccccc1` [toluene], the IC50 in the data set with anti-analyte antibody [1] was determined as 7.4 µg/mL (≈ 80.3 µM).

Turning to `ClC=C(Cl)Cl` [trichloroethylene], the IC50 in the data set on anti-analyte antibody [1] is > 100 µg/mL.
